The results in this text go back to US7504537B2, “Hydroxamic acid derivative and MMP inhibitor containing the same as active ingredient” (Dainippon Sumitomo Pharma Co., Ltd., priority 2001, dated 2009).

Bounds are passed on as bounds.

Assay type in all cases: biochemical
One assay has as its target T1, MMP-14 (MT1-MMP) (Homo sapiens, UniProt P50281).
T1 construct: purchased Biogenesis, supplied by Cosmobio (Nakarai Tesku)
In words: Test 5 MMP-14 (MT1-MMP) inhibiting activity test. As to conditions: human recombinant MT1-MMP, 37° C.; read-out: MMP-14 inhibition activity value. Here is the method:
Test 5 MMP-14 (MTI-MMP) Inhibiting Activity Test
Human recombinant MTI-MMP used the product prepared by Biogenesis and supplied by Cosmobio (Nakarai Tesku).
An assay buffer solution (70 μl, pH 7.5 solution containing 0.1M Tris-HCl solution, 0.1M calcium chloride solution, 10 mM sodium chloride solution and 0.05% Brij-35 solution), 0.1 w/w % a compound in DMSO (10 μl), MMP substrate solution (MOCAc-Pro-Leu-Gly-Leu-A2pr(DNP)-Ala-Arg-NH2 (Peptide Lab.) diluted with the assay buffer solution (50 μM, 10 μl)) and human recombinant MT1-MMP (0.4 pg/10 μl/well) were well agitated under stirring. The enzyme activity of the mixture was measured based on fluorescence intensity (λex 320 nm/λem 405 nm) by a fluorescence reader. After the mixture was incubated at 37° C. for 0.5 hour, the fluorescence intensity (λex 320 nm/λem 405 nm) was measured every hour, and IC50 was calculated.
The inhibition value was calculated by withdrawing average value of blank well from fluorescence mean value of well in which MT1-MMP was added. As the blank was used the mixed solution prepared by adding assay buffer (10 μl) instead of MT1-MMP solution.

The target in another assay is T2, MMP-13 (Homo sapiens, UniProt P45452).
T2 construct: a fragment of 767 bp encoding original 84 amino acids of complete MMP-13 and encoding 164 amino acids; made in house; host or cells: E. coli BL21 (DE3), pET11a
In words: Test 2 Test on MMP-13 inhibition activity (fluorogenic peptide substrate). As to conditions: activated MMP-13, 37° C. The text has this:
Test 2 Test on MMP-13 Inhibition Activity
In order to subcloning C-terminal truncated cDNA in which the cDNA encodes procollagenase-3 (proMMP-13) (J. Biol. Chem., 269(24), 16766-16773 (1994)), two synthesized oligonucleotide primer fragments: • (5′-[…]-3′ and 5′-[…]-3′: In former the sequence for specific NdeI site (under line) including first methionine is included, and in latter terminal codon and BamHI site (under lined) are included.) were used with human cartilage cell cDNA library for PCR. Due to these primers and Pfu DNA polymelase (STRATAGENE) for PCR, there was obtained a fragment of 767 bp encoding original 84 amino acids of complete MMP-13 and encoding 164 amino acids. The said fragment was cut out with digestion by NdeI and BamHI, and the fragment was annealed to NdeI site and BamHI site of pET11a (STRATAGENE). The recombinant plasmid was transformed into E. coli BL21 (DE3) and the bacteria were cultivated. The crude cell extract was prepared according to the method of Biochemistry. The said extract was dialyzed with 20 mM Tris-HCl (pH 7.2)/5 mM CaCl2/0.02% NaN3 solution, treated with SP-sepharose HP column (1.6×10 cm, Amasham-Pharmacia biotec), and the eluting was carried out by liner gradient from 0 to 0.3 m of sodium chloride solution (50 ml) (partially purified proMMP-13 was eluted at about 0.2M.) The eluted fraction was dialyzed with 20 mM Tris-HCl (pH 7.9)/5 mM CaCl2/200 mM (NH4)2SO4/0.02% NaN3 solution, treated with phenylsepharose HP column (1.6×5 cm, Amersham-Pharmacia biotec), and the eluting was carried out by liner gradient from 0.2M to 0M sulfuric acid ammonium solution (purified proMMP-13 was eluted at about 50 mM.). The eluted fraction was concentrated by YM-5 ultrafilter membrane, and activated by 4-aminophenyl mercuric acetate. Activated MMP-13 was treated with gel filtration chromatography in accordance with the method of Biochemistry to be separated from propeptide. Inhibiting Test Method
Enzyme activity test was carried out by the method of G. Knight (FEBS Lett., 296(3), 263-266 (1992)).
A mixture of activated MMP-13 (20 nM, 10 μl), buffer solution (70 μl, pH 7.5 solution containing 100 mM Tris-HCl solution, 10 mM calcium chloride solution, 100 mM sodium chloride solution and 0.05% Briji-35 solution), MOCAc-Pro-Leu-Gly-Leu-A2pr(DNP)-Ala-Arg-NH2 in 0.1% DMSO solution (100 μM, 10 μl) and a test compound in DMSO solution was incubated for 1.5 hours at 37° C. The mixture was put on a 96 well-plate (100 μl/wel), and the plate was incubated at 37° C. The enzyme activity in the presence of the compound was measured based on fluorescence intensity (λex 320 nm, λem 405 nm), and IC50 was calculated.

The target of the next assay is MMP-9 (Homo sapiens, UniProt P14780). In words: Test 4 MMP-9 inhibiting activity test (biotin labeled gelatin). Particulars: activated human MMP-9, biotin labeled gelatin; read-out: MMP-9 inhibition activity value. The protocol: Test 4 MMP-9 Inhibiting Activity Test
Chain of MMP-9 (P14780 107-707 limits assumed): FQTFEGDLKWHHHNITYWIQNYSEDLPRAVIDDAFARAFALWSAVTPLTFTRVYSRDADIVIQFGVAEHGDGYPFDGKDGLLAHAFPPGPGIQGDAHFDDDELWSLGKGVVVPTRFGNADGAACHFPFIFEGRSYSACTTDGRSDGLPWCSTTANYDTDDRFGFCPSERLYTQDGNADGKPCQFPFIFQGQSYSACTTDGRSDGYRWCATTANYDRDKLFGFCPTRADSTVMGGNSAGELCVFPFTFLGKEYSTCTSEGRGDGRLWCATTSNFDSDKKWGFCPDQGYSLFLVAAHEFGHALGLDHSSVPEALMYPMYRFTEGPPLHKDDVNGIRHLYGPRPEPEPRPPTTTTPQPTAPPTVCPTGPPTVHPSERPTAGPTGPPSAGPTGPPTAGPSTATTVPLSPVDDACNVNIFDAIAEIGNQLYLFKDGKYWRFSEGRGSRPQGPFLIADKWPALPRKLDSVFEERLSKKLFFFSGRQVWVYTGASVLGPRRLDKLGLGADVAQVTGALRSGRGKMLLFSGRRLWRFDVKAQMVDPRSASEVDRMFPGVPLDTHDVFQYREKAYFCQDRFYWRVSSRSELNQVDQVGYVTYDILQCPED
A mixture of buffer solution (190 μl; pH 7.5 solution containing 50 mM Tris-HCl solution, 0.5 m sodium chloride solution and 5 mM calcium chloride solution), human MMP-9 (10 μl) and trypsin solution (20 μl; trypsin 3 mg in activated buffer (5 ml)) was incubated at 37° C. for 10 minutes. Thereto was added aprotinine solution (20 μl; aprotinine (3 mg) in buffer (5 ml)) and the mixture was incubated at 37° C. for 10 minutes, followed by addition of buffer (2 ml). The mixture was preserved under cooling with ice until use.
A mixture of DMSO solution (2 μl) containing definite concentration of the compound, biotin labeled gelatin (188 μl) and activated MMP-9 solution (10 μl) was put on a 96 well-assay plate (protein nonabsorbance type), well agitated, and incubated at 37° C. for 1 hour. This solution was transferred to Streptavidin-coating plate, and agitated at 15° C. to 30° C. for 30 minutes. And then the solution was washed with TTC buffer solution (200 μl) three times. Thereto was added Streptavidin-POD (200 μl) and the mixture was agitated at 15° C. to 25° C. for 60 minutes, followed by washing with TTC buffer (200 μl) three times. Then, ABTS solution (200 μl) was added thereto and after standing at room temperature for 40 minutes, furuorescence intensity was measured at 405 nm and IC50 was calculated.
In case of the above test, DMSO (2 μl) was used as a control instead of a sample solution. In the case of a blank, DMSO (2 μl) instead of the sample solution and the solution (10 μl) prepared in the same manner as preparation of […] but without adding 1.2 Uhuman MMP-9, instead of activated MMP-9 solution (10 μl), were used.

`CC(C)CN(C1(C(=O)NO)CCC1)S(=O)(=O)c1ccc(Oc2ccc(S(C)(=O)=O)cc2)cc1` [Example 18, N-Hydroxy-1-[isobutyl({4-[4-(methylsulfonyl)phenoxy]phenyl}sulfonyl)amino]cyclobutanecarboxamide]: the IC50 on MMP-14 (MT1-MMP) worked out at 799 nM; against MMP-13, 3.1 nM; at MMP-9, 500 nM.
For `CCOC(=O)CN(CC(=O)NO)S(=O)(=O)c1ccc(Oc2ccc(S(C)(=O)=O)cc2)cc1` [Example 22, Ethyl N-{[(hydroxyamino)carbonyl]methyl}-N-({4-[4-(methylsulfonyl)phenoxy]phenyl}sulfonyl)-glycinate], in that order: 668 nM, 1.9 nM and 1400 nM.
In the case of `COc1ccc(Oc2ccc(CC3Sc4ccc(C(=O)O)cc4N(CC(=O)NO)C3=O)cc2)cc1` (stereo not drawn) [compound 1, reference compound], the IC50 was 87.3 nM at MMP-14 (MT1-MMP), 7.4 nM on MMP-13 and over 100 nM at MMP-9.
Regarding `CS(=O)(=O)c1ccc(Oc2ccc(S(=O)(=O)N(CCC(=O)O)C3(C(=O)NO)CCCC3)cc2)cc1` [Example 27, N-{1-[(Hydroxyamino)carbonyl]cyclopentyl}-N-({4-[4-(methylsulfonyl)phenoxy]phenyl}sulfonyl)-β-alanine], the results for the IC50 on MMP-14 (MT1-MMP), on MMP-13 and at MMP-9 were over 5000 nM, 21.3 nM and over 10000 nM, respectively.
For `CC(C)OCCN(CC(=O)NO)S(=O)(=O)c1ccc(Oc2ccc(S(C)(=O)=O)cc2)cc1` [Example 3, N^1-hydroxy-N^2-(2-isopropoxyethyl)-N^2-({4-[4-(methylsulfonyl)phenoxy]phenyl}sulfonyl)glycinamide], in that order: 172 nM, 0.5 nM and 1000 nM.
The like results for `CC(C)CN(C1(C(=O)NO)CCCC1)S(=O)(=O)c1ccc(Oc2ccc(S(C)(=O)=O)cc2)cc1` [Example 2, N-hydroxy 1-[isobutyl({4-[4-(methylsulfonyl)phenoxy]phenyl}sulfonyl)amino]cyclopentanecarboxamide] were, in that order, 3800 nM, 5.7 nM and 300 nM.
The like results for `CS(=O)(=O)c1ccc(Oc2ccc(CC3Sc4ccc(C(=O)O)cc4N(CC(=O)NO)C3=O)cc2)cc1` (stereo not drawn) [Example 50] were, in that order, over 1000 nM, 3 nM and 244 nM.
